The subject of the series is heart of a pig. Particulars: in vivo.

Method: Five milliliters of mitochondria-ssDNA suspension (ssDNA is fluorescently labeled with FAM, and the ssDNA oligo sequence 5′ to 3′ is [sequence]) in conjugation buffer (at a concentration of 1 mg/mL) were directly injected into the heart of the pig. After two hours, the pig was sacrificed, and a small piece of heart tissue where the injection had occurred was cut. The tissue was fixed using formaldehyde, and a histology cut was performed. The tissue was stained with DAPI and rhodamine phalloidin (Thermo Fisher Scientific) to visualize cell nuclei and F-actin networks, respectively. The FAM signal represents the ssDNA signal. A control experiment was prepared by directly injecting naked ssDNA.
An in vivo experiment was conducted to understand the stability of the mitochondria-ssDNA complex inside a tissue or organ after injection. Using a syringe, either the mitochondria-ssDNA complex or naked ssDNA (control) were directly injected into the heart of a pig. Two hours post-injection, the tissue was processed and fluorescently stained using DAPI and rhodamine phalloidin to stain cell nuclei and F-actins, respectively. The samples were analyzed using a fluorescence microscope to visualize nuclei, actin and the FAM-labeled ssDNA.

Take “naked ssDNA: FAM-labeled ssDNA, oligo sequence 5′ to 3′ GCAACAGTGAAGGAAAGCC, injected without mitochondria as control (FAM label, chemistry not fully specified; listed 3' to 5')”: the “ssDNA signal in heart tissue” value is on record as “No ssDNA signal was observed”.

These data come from patent US20260256940A1, “MITOCHONDRIA AS A TARGETED DELIVERY PLATFORM” (cellvie AG, priority 2022, published 2026).
